Laboratory results taken from patent publication US20070166187A1, “Stabilization of paricalcitol using chlorobutyl or chlorinated butyl stoppers” (priority 2006, published 2007).

Tests used:
[1] = accelerated stability model: paricalcitol solution in stoppered vials or ampule, inverted, 80° C., 21 days, HPLC; format: physicochemical
Procedure: In order to effectively evaluate different container closures, an accelerated stability model was devised, wherein vials that contained a paricalcitol solution and were sealed with 27 different types of stoppers were stored inverted and protected from light at 80° C. for 21 days. The vials were different only in the composition of the stoppers which were obtained from commercially available sources. Throughout the 21 day trial, samples were removed at day 2, 7, 14 and 21, and the contents of the vial were analyzed by HPLC (High Pressure Liquid Chromatography) to determine the concentration of the test compound paricalcitol compared to a control sample of known concentration. The control sample consisted of a paricalcitol injection solution stored in a sealed glass ampule which maintained 100% potency for the entirety of the test (21 days). The relative concentration of the paricalcitol in the vials stored with test stoppers compared to the control sample was measured indicating stability of the paricalcitol over the 21 day test. In addition, the accelerated shelf-life study conditions were conducted on an identical vial wherein the headspace of the vials was blanketed with argon gas above the paricalcitol solutions prior to sealing with the appropriate stopper. The argon blanketed sample containing a lower concentration of oxygen was compared to the control sample to determine the stability of the test compound in a more inert atmosphere. The 80° C. 21 day rapid screening method of solutions of paricalcitol in the presence of different stoppers was designed to predict the stability of the test compound (i.e., paricalcitol) relative to the containers that are used in the current marketed product. The paricalcitol solution preparation: (5 mcg/mL in water-propylene glycol-ethanol/50:30:20; as defined under USP28-NF23 Page 1471 guidelines) contains not less than 90.0 percent and not more than 110.0 percent of the labeled amount of paricalcitol (C27H44O3). 1 mL of solution was added to a 5 mL or 10 mL (for 20 mm stopper) Type 1 glass vial. The vials were sealed with the various types of stoppers. In order to evaluate the effect of oxygen, a second series of identical vials was blanketed with argon prior to capping with the stoppers. All of the samples were stored inverted in a light-protected, 80° C. oven to obtain maximum contact between solution and the stopper. Ampule samples (with no headspace argon gassing) were prepared and stored along with vials under the same condition to serve as a control. At least 2 samples for each type of stopper were pulled out at 2, 7, 14, and 21 day time points and assayed using HPLC without further dilution. Paricalcitol concentration profiles from the vials containing different composition stoppers were compared to the same solution packaged in ampules. The relative concentration of remaining paricalcitol was plotted over the course of the 21 day test to determine the relative stability of paricalcitol in the presence of the test stopper. Chromatographic system used: The liquid chromatograph was equipped with a 252-nm detector and a 4.6-mm×25-cm column that contains 5-μm packing L1 with a flow rate about 2 mL per minute. […] Separately inject equal volumes (about 100 to 200 μL) of the Standard preparation and the Assay preparation into the chromatograph, record the chromatograms, and measure the responses for the major peaks. Calculate the quantity, in μg, of paricalcitol (C27H44O3) in each mL of the Injection taken by the formula: C(rU/rS), in which C is the concentration, in μg per mL, of paricalcitol in the control standard, calculated on the basis of the content of paricalcitol in the USP Paricalcitol Solution RS; and rU and rS are the paricalcitol peak responses obtained from the test samples and the control standard, respectively. Results Five stability studies were conducted to evaluate the stoppers. […]

[2] = commercially available injection vial containing a solution of paricalcitol; cited from earlier work
[3] = formulation study of the effect of BHT on paricalcitol stability, 35 day 80° C. degradation model; format: physicochemical; settings: no BHT, ampule and vial with 4432/50/Flu/B2-40 stopper, 35 days
Procedure: BHT is an antioxidant and is often used to protect chemicals and materials from oxidative degradation and is present in several of the stoppers. Levels of BHT were identified in the test samples during the 21 day, 80° C. storage and during a separate 25, 30, and 40° C. stability studies conducted over a 9-month interval. […] To determine, whether or not BHT would enhance the stability or cause degradation of the paricalcitol solution, a formulation study was conducted to evaluate the effect of BHT on the stability of paricalcitol in the Zemplar® formulation with the current stopper using a 35 day 80° C. degradation model. In this study, different amounts of BHT were added to the Zemplar® formulation with concentrations of 0.05, 0.1, 0.5, and 1.0 mcg/mL. The controls consisted of the Zemplar formulation without BHT contained in ampules and vials sealed with either […]-1/FT/B2-40 or the 4432/50/Flu/B2-40 stoppers. […] Therefore, causes not fully understood led to the enhanced stabilization of the paricalcitol solution contained in samples with 4432/50/Flu/B2-40 stoppers.

## C[C@H](/C=C/[C@H](C)C(C)(C)O)[C@H]1CC[C@H]2/C(=C/C=C3C[C@@H](O)C[C@H](O)C3)CCC[C@]12C [paricalcitol]
[1]; Study 1, argon headspace, chlorobutyl stoppers versus other stoppers
  stability with argon headspace gassing: more stable
[1]; Study 1, without argon headspace, Stopper #8 (Ashland chlorobutyl, Tefzel)
  concentration of paricalcitol within the vial: comparable to the sample stored in the ampule
[1]; Study 1, without argon headspace, Stopper #8 (Ashland chlorobutyl, Tefzel) and Stopper #7 (Ashland chlorobutyl, uncoated) versus stoppers #3, 10, 12, 13
  degradation over the 21 day test period: least degradation
[1]; Study 2, West chlorobutyl and Daikyo chlorinated butyl stoppers, 21 days at 80° C.
  paricalcitol concentration: remained unchanged
[1]; Study 2, argon headspace, butyl, bromobutyl and POE stoppers compared to chlorobutyl and chlorinated butyl stoppers
  concentration of paricalcitol at the 21 day interval: still lowest
[1]; Study 3, without argon, Ashland 5212 chlorobutyl stoppers with Plasma and Prop coatings
  stability profile: constant stability profiles
[1]; Study 4, West 4432/50 stopper without any barrier coating
  performance relative to ampule: performed as well as the ampule sample
[1]; Study 4, stoppers consisting of chlorobutyl material
  concentration of paricalcitol throughout the 21 day test: consistently maintained the highest concentration
[1]; vial with D777-1/FT/B2-40 stopper (marketed stopper), 80° C.
  time point at which potency drop starts: 7 days
[1]; vials sealed with chlorobutyl or chlorinated butyl stoppers, 80° C.
  rate of decomposition over the 21 days: slowest rate of decomposition
[2]
  current shelf-life: 1 year
[3]
  paricalcitol concentration: remained constant
